Here are results for three compounds from patent US8367714B2, “Cannabinoid receptor targeted agent” (Vanderbilt University, priority 2007, dated 2013).

In test [1] the target is CB2 receptor (Homo sapiens, UniProt P34972). To be noted: cited from earlier work.
Test [2] deals with T1, CB2 receptor (Mus musculus, UniProt P47936).
T1 construct: expressed in transfected cells; host or cells: DBT mouse astrocytoma cells, 2D4 clone; wild-type DBT cells lack CB2
The experiment in a line: Fluorescence imaging of live DBT cells (2D4 CB2-expressing clone and wild type) and competition study. It counts as cell-based. To be noted: 5 μM, control for non-specific binding due to the dye (FIG. 2). The source says: To test whether NIRmbc94 reliably binds to the CB2 receptor, we already had in place a system wherein the receptor was both absent and present.

Some results are limits rather than exact numbers.

Chain of CB2 receptor (Homo sapiens, UniProt P34972) (P34972 whole entry): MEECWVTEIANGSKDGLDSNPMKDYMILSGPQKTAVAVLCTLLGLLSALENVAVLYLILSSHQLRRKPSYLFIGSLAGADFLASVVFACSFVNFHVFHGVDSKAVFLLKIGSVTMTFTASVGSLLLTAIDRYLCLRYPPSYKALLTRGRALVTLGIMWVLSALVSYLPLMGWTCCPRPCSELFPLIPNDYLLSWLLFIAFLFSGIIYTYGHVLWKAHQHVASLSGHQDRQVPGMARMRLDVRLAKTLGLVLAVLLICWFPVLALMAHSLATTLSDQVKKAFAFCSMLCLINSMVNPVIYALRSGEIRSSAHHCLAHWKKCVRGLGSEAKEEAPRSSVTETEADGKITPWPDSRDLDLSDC
T1 sequence (P47936 whole entry): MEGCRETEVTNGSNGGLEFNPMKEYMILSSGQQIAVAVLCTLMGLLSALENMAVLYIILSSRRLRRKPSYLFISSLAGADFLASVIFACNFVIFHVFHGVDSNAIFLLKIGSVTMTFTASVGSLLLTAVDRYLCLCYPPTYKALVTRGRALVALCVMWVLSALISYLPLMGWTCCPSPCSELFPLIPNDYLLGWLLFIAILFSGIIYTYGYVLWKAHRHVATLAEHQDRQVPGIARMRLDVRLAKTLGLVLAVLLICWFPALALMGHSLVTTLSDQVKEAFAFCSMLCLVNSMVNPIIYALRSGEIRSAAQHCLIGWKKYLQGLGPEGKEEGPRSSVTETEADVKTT

As for SR144528, on CB2 receptor [1], the CB2/CB1 affinity ratio was more than 700.

With `COc1ccc(C(=O)c2c(C)n(CCN3CCOCC3)c3cc(I)ccc23)cc1` [AM630], the CB2/CB1 affinity ratio on CB2 receptor [1] was 165. `CC1(C)C(=CC=C2CCCC(C=CC3=[N+](CCCCCC(=O)[O-])c4ccc(S(=O)(=O)[O-])cc4C3(C)C)=C2Oc2ccc(S(=O)(=O)[O-])cc2)N(CCCCS(=O)(=O)[O-])c2ccc(S(=O)(=O)[O-])cc21.[Na+].[Na+].[Na+].[Na+]` [IRDye™ 800CW acid]: the “fluorescence of cells dosed with free dye” value at CB2 receptor [2] is “does not produce significant fluorescence”.
